Columns and labels:
Assay in all cases: relative viability (nuclei count vs DMSO), 5 days (fraction); higher = more cells survive
CAP-232 = compound: C[C@H]([C@@H](C(=O)N)NC(=O)[C@@H]1CSSC[C@@H](C(=O)N[C@H](C(=O)N[C@@H](C(=O)N[C@H](C(=O)N1)CCCCN)CC2=CNC3=CC=CC=C32)CC4=CC=C(C=C4)O)NC(=O)[C@@H](CC5=CC=CC=C5)N)O [CAP-232]
Summary of the method: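 Lung cancer cell lines in 1536-well plates were kept overnight at 37 °C, then pinned with five library-drug doses (not always all listed) spaced by √10 on vehicle-anchored plates. After 5 days without medium change, cells were fixed, permeabilised and Hoechst-stained in one step, imaged at 4×, and nuclei were counted with MetaXpress. Viability is treated-well nuclei divided by vehicle-well nuclei, taken as the median over plates. Plates passed only with control CV below 25% and at least one doubling.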

CAP-232 + Foretinib = compound: C[C@H]([C@@H](C(=O)N)NC(=O)[C@@H]1CSSC[C@@H](C(=O)N[C@H](C(=O)N[C@@H](C(=O)N[C@H](C(=O)N1)CCCCN)CC2=CNC3=CC=CC=C32)CC4=CC=C(C=C4)O)NC(=O)[C@@H](CC5=CC=CC=C5)N)O [CAP-232] + COc1cc2c(Oc3ccc(NC(=O)C4(C(=O)Nc5ccc(F)cc5)CC4)cc3F)ccnc2cc1OCCCN1CCOCC1 [Foretinib] (partner 0.25 µM)
Summary of the method: (§1)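 Relative viability is defined as nuclei in treated wells over nuclei in vehicle wells. Duplicate plates were run and medians reported. Lung cancer cell lines in 1536-well plates were dosed by pin tool one day after seeding, with one drug or with a fixed anchor-drug dose plus five library-drug doses (not always all listed) in √10 steps, and nuclei were counted after 5 days.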

CAP-232 + Crizotinib = compound: C[C@H]([C@@H](C(=O)N)NC(=O)[C@@H]1CSSC[C@@H](C(=O)N[C@H](C(=O)N[C@@H](C(=O)N[C@H](C(=O)N1)CCCCN)CC2=CNC3=CC=CC=C32)CC4=CC=C(C=C4)O)NC(=O)[C@@H](CC5=CC=CC=C5)N)O [CAP-232] + C[C@@H](Oc1cc(-c2cnn(C3CCNCC3)c2)cnc1N)c1c(Cl)ccc(F)c1Cl [Crizotinib] (partner 1 µM)
Summary of the method: as §1

CAP-232 + Linsitinib = compound: C[C@H]([C@@H](C(=O)N)NC(=O)[C@@H]1CSSC[C@@H](C(=O)N[C@H](C(=O)N[C@@H](C(=O)N[C@H](C(=O)N1)CCCCN)CC2=CNC3=CC=CC=C32)CC4=CC=C(C=C4)O)NC(=O)[C@@H](CC5=CC=CC=C5)N)O [CAP-232] + C[C@]1(O)C[C@@H](c2nc(-c3ccc4ccc(-c5ccccc5)nc4c3)c3c(N)nccn32)C1 [Linsitinib] (partner 1 µM)
Summary of the method: as §1

CAP-232 + Phenformin = compound: C[C@H]([C@@H](C(=O)N)NC(=O)[C@@H]1CSSC[C@@H](C(=O)N[C@H](C(=O)N[C@@H](C(=O)N[C@H](C(=O)N1)CCCCN)CC2=CNC3=CC=CC=C32)CC4=CC=C(C=C4)O)NC(=O)[C@@H](CC5=CC=CC=C5)N)O [CAP-232] + N=C(N)NC(=N)NCCc1ccccc1 [Phenformin] (partner 250 µM)
Summary of the method: as §1

Row | Cell Line | relative viability (CAP-232; 0.4 µM) | relative viability (CAP-232; 1.265 µM) | relative viability (CAP-232; 4 µM) | relative viability (CAP-232; 12.65 µM) | relative viability (CAP-232 + Foretinib; first compound 0.4 µM) | relative viability (CAP-232 + Foretinib; first compound 1.265 µM) | relative viability (CAP-232 + Foretinib; first compound 4 µM) | relative viability (CAP-232 + Foretinib; first compound 12.65 µM) | relative viability (CAP-232 + Crizotinib; first compound 0.4 µM) | relative viability (CAP-232 + Crizotinib; first compound 1.265 µM) | relative viability (CAP-232 + Crizotinib; first compound 4 µM) | relative viability (CAP-232 + Crizotinib; first compound 12.65 µM) | relative viability (CAP-232 + Linsitinib; first compound 0.4 µM) | relative viability (CAP-232 + Linsitinib; first compound 1.265 µM) | relative viability (CAP-232 + Linsitinib; first compound 4 µM) | relative viability (CAP-232 + Linsitinib; first compound 12.65 µM) | relative viability (CAP-232 + Phenformin; first compound 0.4 µM) | relative viability (CAP-232 + Phenformin; first compound 1.265 µM) | relative viability (CAP-232 + Phenformin; first compound 4 µM) | relative viability (CAP-232 + Phenformin; first compound 12.65 µM)
1 | HARA | 1.12 | 0.984 | 1.03 | 0.902 | 0.983 | 0.975 | 0.805 | 0.824 | 1.16 | 1.05 | 0.936 | 0.998 | 0.907 | 0.989 | 1.14 | 0.836 | 0.538 | 0.5 | 0.463 | 0.515
2 | NCI-H460 | 1.04 | 1.01 | 1.09 | 0.777 | 1.02 | 1.1 | 1.22 | 0.622 | 0.924 | 1.1 | 1.05 | 0.534 | 0.89 | 0.865 | 0.986 | 0.44 | 0.634 | 0.529 | 0.567 | 0.307
3 | EKVX | 1.07 | 0.968 | 1.04 | 0.885 | 0.77 | 0.571 | 0.768 | 0.768 | 0.899 | 1.1 | 1.03 | 0.651 | 1.01 | 1.07 | 0.972 | 0.737 | 0.232 | 0.218 | 0.23 | 0.233
4 | NCI-H1755 | 1.04 | 0.964 | 1.1 | 0.918 | 0.927 | 0.883 | 0.934 | 0.815 | 0.988 | 0.778 | 0.976 | 0.747 | 1.07 | 0.975 | 1.08 | 0.941 | 0.676 | 0.626 | 0.622 | 0.582
5 | NCI-H2087 | 1.02 | 0.936 | 1.08 | 0.788 | 1.17 | 1.2 | 1.1 | 0.665 | 0.929 | 0.809 | 0.967 | 0.819 | 0.894 | 0.955 | 0.924 | 0.541 | 0.435 | 0.419 | 0.436 | 0.321
6 | H3255 | 0.976 | 0.946 | 1.01 | 0.769 | 0.849 | 0.799 | 0.866 | 0.854 | 0.956 | 1.04 | 0.854 | 0.692 | 0.922 | 0.924 | 1.16 | 0.916 | 0.746 | 0.309 | 0.341 | 0.504
7 | SK-MES-1 | 1.02 | 1.06 | 1.01 | 0.904 | 0.935 | 1.04 | 0.95 | 0.771 | 0.965 | 0.909 | 0.926 | 0.931 | 1.09 | 1.14 | 1 | 1.01 | 0.684 | 0.663 | 0.693 | 0.521
8 | NCI-H23 | 1.09 | 0.853 | 0.949 | 0.931 | 0.926 | 0.883 | 0.718 | 0.802 | 0.532 | 0.444 | 0.462 | 0.362 | 0.5 | 0.624 | 0.587 | 0.543 | 0.84 | 0.813 | 0.833 | 0.678
9 | HCC-827 | 1.07 | 1.05 | 1.06 | 0.997 | 1.05 | 1 | 1.01 | 1.01 | 0.932 | 1.02 | 0.784 | 0.963 | 0.911 | 0.893 | 0.921 | 0.959 | 0.409 | 0.384 | 0.387 | 0.418
10 | HCC-78 | 1.16 | 0.947 | 1.14 | 0.992 | 0.564 | 0.562 | 0.473 | 0.568 | 0.367 | 0.34 | 0.251 | 0.323 | 0.53 | 0.559 | 0.371 | 0.408 | 0.859 | 0.806 | 0.746 | 0.54
11 | NCI-H727 | 0.746 | 0.938 | 0.955 | 0.913 | 0.933 | 0.92 | 0.845 | 0.824 | – | 0.757 | 1.04 | 0.82 | – | 0.346 | 0.316 | 0.245 | 0.511 | 0.488 | 0.536 | 0.533
12 | NCI-H1975 | 1.11 | 0.86 | 1.02 | 0.72 | 0.931 | 0.915 | 1.06 | 0.474 | 1.11 | 1.07 | 1.08 | 0.892 | 1.03 | 1.02 | 1.07 | 0.65 | 0.449 | 0.413 | 0.437 | 0.332
13 | NCI-H1563 | 0.987 | 0.927 | 0.95 | 0.657 | 0.972 | 0.886 | 0.939 | 0.639 | 0.965 | 0.911 | 0.835 | 0.777 | 1.36 | 1.12 | 1.21 | 0.829 | 0.698 | 0.643 | 0.598 | 0.37
14 | COR-L23 | 1.15 | 1.05 | 1.09 | 0.745 | 1.02 | 0.957 | 1.1 | 0.851 | 0.665 | 0.793 | 0.72 | 0.619 | 0.92 | 1 | 0.971 | 0.676 | 0.497 | 0.47 | 0.468 | 0.372
15 | CAL-12T | 0.917 | 0.992 | 0.995 | 0.97 | 1.06 | 1.06 | 0.927 | 0.85 | 0.531 | 0.703 | 0.657 | 0.739 | 0.812 | 0.784 | 0.892 | 0.966 | 0.491 | 0.506 | 0.593 | 0.355
16 | UMC-11 | 0.917 | 0.914 | 1.08 | 0.95 | 1.09 | 1.1 | 1.12 | 0.977 | 0.585 | 0.786 | 0.681 | 0.639 | 1.13 | 1 | 1.14 | 1.1 | 0.309 | 0.28 | 0.332 | 0.295
17 | NCI-H2126 | 1.05 | 0.985 | 1.1 | 0.991 | 1.34 | 1.33 | 1.63 | 1.11 | 1.06 | 1.03 | 1.13 | 1.09 | 0.722 | 0.709 | 0.736 | 0.74 | 0.525 | 0.5 | 0.51 | 0.56

— the supplement of paper PMC10307832
